Measurements taken from ChEMBL document CHEMBL4052731, “Interconvertible geometric isomers of Plasmodium falciparum dihydroorotate dehydrogenase inhibitors exhibit multiple binding modes” (Bioorg Med Chem Lett, 2017).

Assays:
[1] = Inhibition of homologous location truncated N-terminal His-tagged Plasmodium falciparum DHODH expressed in Escherichia coli pyrD Sphi6745 by spectrophotometric analysis
[2] = target: Dihydroorotate dehydrogenase (quinone), mitochondrial (Homo sapiens, UniProt Q02127); test: Inhibition of homologous location truncated N-terminal His-tagged human DHODH expressed in Escherichia coli pyrD Sphi6745 by spectrophotometric analysis
[3] = Selectivity ratio of IC50 for homologous location truncated N-terminal His-tagged human DHODH to IC50 for homologous location truncated N-terminal His-tagged Plasmodium falciparum DHODH

Dihydroorotate dehydrogenase (quinone), mitochondrial, sequence (Q02127 whole entry, the tested form may be a part): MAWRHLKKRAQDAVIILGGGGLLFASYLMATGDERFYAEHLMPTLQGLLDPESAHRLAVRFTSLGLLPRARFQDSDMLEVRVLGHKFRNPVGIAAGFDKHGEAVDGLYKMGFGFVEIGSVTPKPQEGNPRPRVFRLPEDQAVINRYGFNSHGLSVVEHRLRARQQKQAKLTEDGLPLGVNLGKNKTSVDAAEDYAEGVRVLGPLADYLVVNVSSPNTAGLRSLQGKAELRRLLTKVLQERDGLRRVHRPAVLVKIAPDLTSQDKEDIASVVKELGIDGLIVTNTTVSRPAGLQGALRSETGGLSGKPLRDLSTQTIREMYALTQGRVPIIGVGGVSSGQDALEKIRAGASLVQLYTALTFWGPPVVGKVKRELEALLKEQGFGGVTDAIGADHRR

Row | SMILES | IC50 [1] [nM] | IC50 [2] [nM] | Ki [1] [nM] | Ratio IC50 [3]
1 | CCn1c2ccccc2c2cc(NC=C3C(=O)OC(C)(C)OC3=O)ccc21 | > 100000 | – | – | –
2 | CCOC(=O)/C(C#N)=C(/C)Nc1ccc2c(c1)c1ccccc1n2CC | > 100000 | – | – | –
3 | CCOC(=O)/C(C#N)=C(/C)Nc1ccc2sc3ccccc3c2c1 | > 100000 | – | – | –
4 | CCOC(=O)/C(=C\Nc1ccc2sc3ccccc3c2c1)[N+](=O)[O-] | 380 | > 100000 | 150 | –
5 | CCOC(=O)C(=CNc1ccc2c(c1)c1ccccc1n2CC)C(=O)OCC | 4400 | – | – | –
6 | CCOC(=O)/C(C#N)=C\Nc1ccc2sc3ccccc3c2c1 | 1200 | – | – | –
7 | CCOC(=O)/C(C#N)=C\Nc1ccc2c(c1)c1ccccc1n2CC | 280 to 440 | – | 50 | 1000
8 | CCOC(=O)C(=CNc1ccc2sc3ccccc3c2c1)C(=O)OCC | 160 | – | 20 | –
9 | CC(=O)C(=CNc1ccc2sc3ccccc3c2c1)C(C)=O | > 100000 | – | – | –
10 | CC1(C)OC(=O)C(=CNc2ccc3sc4ccccc4c3c2)C(=O)O1 | > 100000 | – | – | –
11 | CCn1c2ccccc2c2cc(NC=C(C(C)=O)C(C)=O)ccc21 | > 100000 | – | – | –
12 | CCOC(=O)/C(=C/Nc1ccc2c(c1)c1ccccc1n2CC)[N+](=O)[O-] | 94 | > 100000 | 37 | –
